Experimental findings from US20230337672A1, “METHOD OF C[…] RUST FUNGUS HAVING RESISTANCE TO QoI FUNGICIDE” (SUMITOMO CHEMICAL COMPANY, LIMITED, priority 2020, published 2023) are described below.

The test concerns soybean rust fungus (Phakopsora pachyrhizi) having an amino acid substitution of F129L in a mitochondrial cytochrome b protein. In words: Leaf disc test: preventive spray, then inoculation with soybean rust fungus spores, lesion area investigated. Type of test: in vivo. Conditions: Comparative Test Example 1 (Table A). How it is done:
A true leaf of a soybean (cultivar: Kurosengoku) was cut into a diameter of 1 cm to prepare each leaf disc. To each well of a 24 well microplate was dispensed 1 mL of an agar medium (agar concentration 1.2%), and then one of said leaf disc was placed on each well. To a mixture of Sorpol (registered trademark) 1200KX (0.5 µL), DMSO (4.5 µL), and xylene (5 µL) was added a DMSO solution (20 µL) comprising a test compound (10000 ppm), and the resulting mixture was mixed. The resulting mixture was diluted with ion exchange water to prepare a spray solution comprising a prescribed concentration of the test compound. Said spray solution was sprayed into each leaf disc at a ratio of 10 µL per leaf disc. After 1 day, an aqueous suspension of spores of soybean rust fungus (Phakopsora pachyrhizi) having an amino acid substitution of F129L in a mitochondrial cytochrome b protein (1.0 × 10^5/mL) was inoculated by spraying on each leaf disc. After the inoculation, the microplate was placed into an artificial climate chamber (Lighting: 6 hours, Lights-out: 18 hours, Temperature: 23° C., Humidity: 60%). After 1 day, the leaf discs were air-dried until water droplets on the surfaces of the leaf discs disappeared, and the microplate was placed into the artificial climate chamber again for 12 days. Then, lesion area of soybean rust was investigated. As a result, when the prescribed concentration was 50 ppm, each lesion area of leaf disc treated with any one of the Present compound 2, 6, 8, 25, 29, or 35 as the test compound was 30% or less relative to the lesion area of non-treated leaf disc.
Here, the term of “non-treated” means that a spray solution comprising a test compound was not sprayed into a leaf disc.
Each test is carried out according to the Test Example 1 by using any one of the Present compound S as the test compound with a prescribed concentration of 12.5 ppm. As a result, control effects on soybean rust can be confirmed in the leaf discs treated with test compounds.
Each test is carried out according to the Test Example 1 by using any one of the Present compound S as the test compound with a prescribed concentration of 3.1 ppm. As a result, control effects on soybean rust can be confirmed in the leaf discs treated with test compounds.
Each test was carried out according to the Test Example 1 by using the Present compound 2, 6, 8, 29 or 35, or azoxystrobin, dimoxystrobin, or metominostrobin as the test compound with a prescribed concentration of 50 ppm.
As to `Cn1nc(Cl)n(-c2cccc3oc(COc4ccccc4)nc23)c1=O` [Present compound 35], the “Lesion area (%) at the concentration of 50 ppm” value (shortened to “Lesion area (%)”) is on record as 0%.
In the case of `Cn1nc(Cl)n(-c2cccc3oc(Cc4ccccc4)nc23)c1=O` [Present compound 29], the “Lesion area (%)” value was 10%.
As to `CNC(=O)/C(=N/OC)c1ccccc1Oc1ccccc1` [Metominostrobin, metominostrobin, reference compound], the “Lesion area (%)” value was 100%.
On to `CO/C=C(/C(=O)OC)c1ccccc1Oc1cc(Oc2ccccc2C#N)ncn1` [Azoxystrobin, azoxystrobin, reference compound], for which the “Lesion area (%)” value was 100%.
On to `CNC(=O)/C(=N/OC)c1ccccc1COc1cc(C)ccc1C` [Dimoxystrobin, dimoxystrobin, reference compound], for which the “Lesion area (%)” value worked out at 100%.
Turning to `CO/C=C(/C(=O)OC)c1cccc2oc(-c3ccccc3)nc12` [Present compound 2], the “Lesion area (%)” value turned out to be 10%.
The figure for `CO/C=C(/C(=O)OC)c1cccc2ccc(-c3ccccc3)cc12` [Present compound 8] is 0%; for `CO/C=C(/C(=O)OC)c1cccc2sc(-c3ccccc3)nc12` [Present compound 6] it is 30%.
